Data as given in patent publication US10544095B2 (Pfizer Inc., priority 2015, dated 2020).

Tests used:
[1] = target: human recombinant TDO2 enzyme (Homo sapiens (Human), UniProt P48775); test: Assay for TDO2 enzymatic activity determination; format: biochemical; conditions: human recombinant TDO2, L-Trp 1 mM, kynurenine absorbance at 480 nm
Method: The compounds of formula I, its subformulae, and enantiomers, salts and solvates thereof, are useful to inhibit the enzymatic activity of human TDO2. To measure the TDO2 activity, the procedure described in Dolusic et al. J. Med. Chem.; 2011, 54, […] was adapted: the reaction mixture contained (final concentrations) potassium phosphate buffer (50 mM, pH 7.5), ascorbic acid ([…]), methylene blue (0.125 μM), catalase (40 units/mL, from bovine liver, Sigma), and human recombinant TDO2 enzyme (prepared as described in Dolusic et al. J. Med. Chem.; 2011, 54, 5320-5334; 0.9 μg) without or with the compounds of the present invention at the indicated concentrations (total volume 112.5 μL). The reaction was initiated by the addition of 37.5 μL of L-Trp (final concentration 1 mM) at room temperature. The reaction was conducted at room temperature during one hour and stopped by the addition of 30 μL of 30% (w/v) trichloroacetic acid. To convert N-formylkynurenine into kynurenine, the reaction mixture was incubated at 65° C. for 30 min. […] Kynurenine concentrations were determined by measuring the absorbance at 480 nm. A standard curve was made with pure kynurenine. The TDO activity was measured as described above using ten serial concentrations of the compounds of the present invention. Data were fitted using the Prism™ software (GraphPad Software, Inc.) using standard parameters.

[2] = target: hTDO2 in human glioblastoma A172 cells (Homo sapiens (Human), UniProt P48775); test: Cellular assay for TDO2 activity determination in A172 cells; format: cell-based; conditions: overnight incubation, kynurenine absorbance at 480 nm
Procedure, shortened: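 Glioblastoma A172 cells with endogenous hTDO2, 1.25×10^4 cells/well, incubated overnight at 37° C. with ten serial compound concentrations in IMDM with 2% FBS. Supernatant kynurenine, after TCA precipitation and 4-(dimethylamino)-benzaldehyde reaction, read at 480 nm against kynurenine standard curve; data curve-fitted.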

[3] = target: TDO2 (Mus musculus (Mouse), UniProt P48776); test: Pharmacodynamic assay for TDO2 in vivo activity: increase of blood tryptophan levels in mice; conditions: female BALB/c mice, plasma after two hours
Method: The compounds of the present invention increase the amount of Tryptophan in mouse blood. Briefly, female BALB/c mice (7-8 weeks old) were treated with either a suspension of one of the compounds of the present invention in 0.5% hydroxypropyl methyl cellulose (HPMC) K4M (4000 mPa·s (cPs), Methocell™, Dow chemical)/0.25% Tween® 20 (Sigma Aldrich) at different doses (30, 60 and 100 mg/kg), or with a vehicle control (0.5% HPMC K4M/0.25% Tween 20), by the oral route by gavage (dosing volume 5 mL/kg, 10 mice per group). After two hours, blood was harvested, plasma was prepared and the amount of Tryptophan present was determined by LC-MS-MS (HPLC column Unison UK-Phenyl, 75×4.6, 3 μm, flow rate 0.8 mL/min, 8 minutes gradient from 95% water+0.1% formic acid/5% Acetonitrile+0.1% formic acid to 5% water+0.1% formic acid/95% Acetonitrile+0.1% formic acid, retention time 2.4 min; API4000 MS-MS system from AB Sciex, ESI+ mode, parent ion 205.1, daughter ion 146.1).

Chain of TDO2 (P48776 whole entry): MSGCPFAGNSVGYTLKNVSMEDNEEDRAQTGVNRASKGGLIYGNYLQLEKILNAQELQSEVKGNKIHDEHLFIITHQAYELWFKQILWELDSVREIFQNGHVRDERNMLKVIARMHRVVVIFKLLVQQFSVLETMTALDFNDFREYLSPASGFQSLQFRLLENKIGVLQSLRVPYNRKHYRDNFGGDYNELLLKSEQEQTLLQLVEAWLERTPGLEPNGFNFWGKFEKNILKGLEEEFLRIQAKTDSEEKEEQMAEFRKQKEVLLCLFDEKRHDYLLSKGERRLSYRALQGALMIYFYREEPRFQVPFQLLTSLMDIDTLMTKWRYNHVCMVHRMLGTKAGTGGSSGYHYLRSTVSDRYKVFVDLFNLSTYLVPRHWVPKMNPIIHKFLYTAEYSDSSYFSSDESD
Chain of human recombinant TDO2 enzyme (P48775 whole entry): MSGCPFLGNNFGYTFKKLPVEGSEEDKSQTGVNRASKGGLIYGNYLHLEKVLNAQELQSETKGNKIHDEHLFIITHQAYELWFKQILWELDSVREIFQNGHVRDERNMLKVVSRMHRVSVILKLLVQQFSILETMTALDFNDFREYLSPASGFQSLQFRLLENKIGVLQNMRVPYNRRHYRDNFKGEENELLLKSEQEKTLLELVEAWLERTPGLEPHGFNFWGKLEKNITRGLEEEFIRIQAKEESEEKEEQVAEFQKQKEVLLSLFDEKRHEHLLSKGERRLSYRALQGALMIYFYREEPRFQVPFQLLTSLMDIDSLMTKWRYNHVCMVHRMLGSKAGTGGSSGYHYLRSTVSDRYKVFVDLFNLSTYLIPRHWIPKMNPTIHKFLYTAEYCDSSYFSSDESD
Chain of hTDO2 in human glioblastoma A172 cells (P48775 whole entry): as above

## O=S(=O)(c1ccc(-c2c[nH]c3cc(F)ccc23)cc1)N1CCN[C@H](CO)C1 [Example 18, (S)-(4-((4-(6-fluoro-1H-indol-3-yl)phenyl)sulfonyl)piperazin-2-yl)methanol]
[1]
  IC50: 1100 nM
[2]
  IC50: 190 nM
[3]; 30 mg/kg oral gavage
  increase of circulating Tryptophan compared to vehicle-treated controls: 67%
[3]; 60 mg/kg oral gavage
  increase of circulating Tryptophan compared to vehicle-treated controls: 81%
[3]; 100 mg/kg oral gavage
  increase of circulating Tryptophan compared to vehicle-treated controls: 74%
